The values below come from patent publication US3957785A, “Bβ-Pyrimidino-aminomethyl-10α-ergoline and 10α-methoxyergoline derivatives” (priority 1971, dated 1976).

Structures are written as SMILES. Read-outs that look alike come from different tables or passages of the source.

Data set [1] relates to lethal effects caused by adrenaline. The data set can be described thus: adrenolytic activity in vivo on the rat: reduction of lethal effects caused by adrenaline. Particulars: read-out: ID50 (dose reducing by 50% the lethal effects caused by adrenaline). How it is done:
The adrenolytic activity of the compounds of the invention was also determined in vivo on the rat in comparison with dihydroergotamine and nicergoline. Table 2 reports the doses in mg/kg (ID50) able to reduce by 50% the lethal effects caused by adrenaline after oral (os) and intravenous (i.v.) administration of these compounds as compared with dihydroergotamine and with nicergoline, i.e., 1,6-dimethyl-8 -(5'-bromonicotinoyloxymethyl)-10 -methoxyergoline (Br. J. Pharmac, 34, 700, 1968).

For the next data set, the system named is adrenalin. The data set can be described thus: submaximal inhibiting dosage protecting 80% of rats against adrenalin injected 8 hours after administration. The class given is in vivo. Particulars: Rattus norvegicus, po; peros in rats after 8 hours; single dose of 200 mg/Kg adrenalin; read-out: ID (submaximal inhibiting dosage which protects 80% of the tested animals). As for the experimental part:
This greater stability was confirmed by the determination of the submaximal inhibiting dosage which protects 80% of the tested animals (rats) against a single dose of 200 mg/Kg of body weight of adrenalin injected 8 hours after administration of the tested compounds according to the invention.

The conditions of data set [2]: Arcamone et al. Bioch. Pharmac. 21, 2205, 1972; cited from earlier work.

For the compound `CO[C@]12C[C@@H](COC(=O)c3cncc(Br)c3)CN(C)[C@@H]1Cc1cn(C)c3cccc2c13` [nicergoline, 1,6-dimethyl-8β-(5'-bromonicotinoyloxymethyl) 10α-methoxyergoline, reference compound], the ED50 in data set [1] (iv) turned out to be 0.024 mg/kg; in data set [1] (po, os) it was 7 mg/kg. The ED80 with adrenalin was over 20 mg/kg. The “metabolism in the presence of blood in vitro” value in data set [2] is recorded as “rapidly metabolized”.
